Test results from PMC10010161 (RSC Advances, 2023).
Where a SMILES comes first, the peptide text is derived from it.

How the values were obtained:
[1] = Horizon-LBA; format: in vitro ADME; conditions: DOPC; for relative permeability compared with CsA (in words): 2 h; for degree of decrease of permeability coefficient relative to 1: 1.5 h
[2] = PAMPA; cited from earlier work
[3] = system: Caco-2; conditions: Caco-2 assay; cited from earlier work

Molecule	relative permeability compared with CsA (in words) [1]	degree of decrease of permeability coefficient relative to 1 [1]	also measured
CC[C@@H]1NC(=O)[C@H](C)N(C)C(=O)[C@H](C(C)C)N(C)C(=O)[C@H](CC(C)C)N(C)C(=O)[C@H](CC(C)C)N(C)C(=O)[C@@H](C)NC(=O)[C@H](C)NC(=O)[C@H](CC(C)C)N(C)C(=O)[C@H](C(C)C)NC(=O)[C@H](CC(C)C)N(C)C(=O)CN(C)C1=O [compound 1]	higher permeability than CsA	–	–
CC[C@@H]1NC(=O)[C@H](CC(C)C)N(C)C(=O)[C@H](C(C)C)N(C)C(=O)[C@H](CC(C)C)N(C)C(=O)[C@H](CC(C)C)N(C)C(=O)[C@@H](C)NC(=O)[C@H](C)NC(=O)[C@H](CC(C)C)N(C)C(=O)[C@H](C(C)C)NC(=O)[C@H](CC(C)C)N(C)C(=O)CN(C)C1=O [compound 2]	significant differences in the relative permeability of 2 and 3 from CsA were not observed	–	–
CC[C@@H]1NC(=O)[C@H]([C@@H](C)O)N(C)C(=O)[C@H](C(C)C)N(C)C(=O)[C@H](CC(C)C)N(C)C(=O)[C@H](CC(C)C)N(C)C(=O)[C@@H](C)NC(=O)[C@H](C)NC(=O)[C@H](CC(C)C)N(C)C(=O)[C@H](C(C)C)NC(=O)[C@H](CC(C)C)N(C)C(=O)CN(C)C1=O [compound 3]	significant differences in the relative permeability of 2 and 3 from CsA were not observed	–	–
CC[C@@H]1NC(=O)[C@H](C)N(C)C(=O)[C@H](C(C)C)N(C)C(=O)[C@H](CC(C)C)N(C)C(=O)[C@H](CC(C)C)N(C)C(=O)[C@@H](C)NC(=O)[C@H](C)NC(=O)[C@H](CC(C)C)N(C)C(=O)[C@H](C(C)C)NC(=O)[C@H](C)N(C)C(=O)CN(C)C1=O [compound 5] (HELM PEPTIDE1{A.[dA].[meL].[meL].[meV].[meA].[Abu].[Sar].[meA].V.[meL]}$PEPTIDE1,PEPTIDE1,1:R1-11:R2$$$V2.0)	–	less than 50%	–
CC[C@@H]1NC(=O)[C@H](C)N(C)C(=O)[C@H](C(C)C)N(C)C(=O)[C@H](CC(C)C)N(C)C(=O)[C@H](C)N(C)C(=O)[C@@H](C)NC(=O)[C@H](C)NC(=O)[C@H](CC(C)C)N(C)C(=O)[C@H](C(C)C)NC(=O)[C@H](CC(C)C)N(C)C(=O)CN(C)C1=O [compound 8] (HELM PEPTIDE1{A.[dA].[meA].[meL].[meV].[meA].[Abu].[Sar].[meL].V.[meL]}$PEPTIDE1,PEPTIDE1,1:R1-11:R2$$$V2.0)	–	less than 50%	–
cyclosporin O [CsO]	–	–	permeability compared with CsA (in words) [2]: lower permeability of CsO than CsA; permeability compared with CsA (in words) [3]: lower permeability of CsO than CsA
